Measured values from patent US20180020668A1, “Agricultural Mixtures” (priority 2015, published 2018).

Key:
Type in all cases: in vivo
[1] = tested on: corn; assay: Another corn plant stand establishment and yield study (Example 3); details: seed treatment, rates in mg active[s] per seed
Method: Another study was conducted in order to determine the effects of seed treatments on the number of corn plants per acre and yield. The study design was the same as the study described in Example 1. The results of this study can be seen below in Tables 3 and 4.

[2] = tested on: corn; assay: Corn plant stand establishment and yield study (Example 2); details: seed treatment, rates in mg active[s] per seed
Method: A study was conducted in order to determine the effects of seed treatments on the number of corn plants per acre and yield. One acre was planted with seeds treated as indicated below in a randomized block design. Treatments were applied to the seeds in a manner known by those of skill in the art. The number of plants was determined for each treatment on four different days before harvest. After harvest, the yield of the plants was determined. The results of this study can be seen below in Tables 2 and 3.

[3] = tested on: Rhizoctonia; assay: Corn emergence, vigor and pest infestation study (Example 1, two plantings); details: for Plant Emergence: corn, field inoculated with Rhizoctonia, seed treatment, rates per treatment in mg ai/seed; for Plant Emergence / Pest Severity / Pest Incidence / Plant Vigor: about 30 DAP; for Pest Severity: percentage of infected plants; for Pest Incidence / Plant Vigor: rated on a scale of 1 to 9; for Plant Yield: about six months after planting

Question: With `CN1COCN(Cc2cnc(Cl)s2)C1=N[N+](=O)[O-]` [Thiamethoxam, 3-[(2-Chloro-1,3-thiazol-5-yl)methyl]-5-methyl-N-nitro-1,3,5-oxadiazinan-4-imine] as the molecule, how does the “Corn Plant Yield” value [1] read?
Answer: The value was 172 Bushels/Acre.

Question: And the “Corn Plant Stand - Number of Plants Per Acre” value ([2]; 34 DAP)?
Answer: Its value is 22052 Plants Per Acre.

Question: What about the “Corn Plant Stand - Number of Plants Per Acre” value ([2]; 116 DAP) of the same molecule?
Answer: The value was 20010 Plants Per Acre.

Question: And the “Plant Emergence” value ([3]; first planting)?
Answer: The value was 19800 plants per acre.

Question: And the “Plant Emergence” value ([3]; second planting)?
Answer: The value was 25450 plants per acre.

Question: What about the “Pest Severity” value ([3]; first planting) of the same molecule?
Answer: The value was 41.3%.

Question: And the “Pest Incidence” value ([3]; first planting)?
Answer: Its value is 3.8.

Question: And the “Plant Vigor” value ([3]; first planting)?
Answer: The value was 4.0.

Question: What about the “Plant Yield” value ([3]; first planting) of the same molecule?
Answer: Its value is 60.8 Bu/A.

Question: What about the “Pest Severity” value ([3]; second planting) of the same molecule?
Answer: Its value is 16.3%.

Question: What about the “Pest Incidence” value ([3]; second planting) of the same molecule?
Answer: The value was 6.5.

Question: What about the “Plant Vigor” value ([3]; second planting) of the same molecule?
Answer: Its value is 5.5.

Question: And the “Plant Yield” value ([3]; second planting)?
Answer: The value was 106.7 Bu/A.
